Source: DBAASP
Values after ≈ are worked out from the molar mass of the structure shown. Values joined by “and” are separate entries in the source; they are usually repeats but may differ in a detail not shown here. Equal values may be shown once. Each block holds one compound with its values, some of them ahead of it.

How the values were obtained:
Test in all cases: ≥ marks a high value that may be exact or a test limit, other limits are often not marked, values filed in µg/mL are converted to µM
[1] = system: Acinetobacter baumannii ATCC 19606
[2] = system: Bordetella bronchiseptica CUN 11844-99
[3] = system: Brucella abortus 9.49 (per-)
[4] = system: Escherichia coli ATCC 23716
[5] = system: Escherichia coli ATCC 25922
[6] = system: Pseudomonas aeruginosa CUN 4158-02
[7] = system: Staphylococcus aureus ATCC 43300
[8] = system: Staphylococcus aureus ΔmprFpRBsyn
[9] = system: Staphylococcus aureus ΔmprF
[10] = system: Staphylococcus aureus
[11] = system: Yersinia pestis KIM pYV
[12] = system: Psychrobacter faecalis X29
[13] = system: Rhodococcus rhodochrous X15
[14] = system: Staphylococcus aureus ATCC 2592
[15] = system: Acinetobacter calcoaceticus
[16] = system: Bacillus cereus
[17] = system: Bacillus pumilus
[18] = system: Candida albicans ATCC 2002
[19] = system: Pseudomonas aeruginosa
[20] = system: Shigella dysenteriae
[21] = system: Cryptococcus neoformans ATCC 208821
[22] = system: Fusarium oxysporum
[23] = system: Fusarium solani
[24] = system: Pseudomonas aeruginosa ATCC 9027
[25] = system: Staphylococcus aureus USA 100
[26] = system: Staphylococcus aureus USA 300
[27] = system: Acinetobacter baumannii ATCC 19606R
[28] = system: Batrachochytrium dendrobatidis
[29] = system: Enterococcus faecalis ATCC 29212
[30] = system: Enterococcus faecalis CDC 21
[31] = system: Enterococcus faecium 94-132
[32] = system: Enterococcus faecium
[33] = system: Escherichia coli BAS 849
[34] = system: Escherichia coli ML-35p
[35] = system: Escherichia coli mcr106
[36] = system: Klebsiella pneumoniae ATCC 13883
[37] = system: Klebsiella pneumoniae
[38] = system: Listeria monocytogenes EGD
[39] = system: Mycobacterium avium
[40] = system: Mycobacterium tuberculosis H37Rv
[41] = system: Mycobacterium tuberculosis
[42] = system: Pseudomonas aeruginosa ATCC 27853
[43] = system: Pseudomonas aeruginosa MR2123
[44] = system: Pseudomonas aeruginosa MR3007
[45] = system: Pseudomonas aeruginosa SBI-N
[46] = system: Salmonella enterica serovar typhimurium MS7953s
[47] = system: Salmonella enterica subsp. enterica serovar Typhimurium ATCC 14028s
[48] = system: Staphylococcus aureus 28841
[49] = system: Staphylococcus aureus 30371
[50] = system: Staphylococcus aureus 930918-3
[51] = system: Staphylococcus aureus ATCC 25923
[52] = system: Staphylococcus aureus ATCC 29213
[53] = system: Streptococcus agalactiae ATCC 12386

SMILES: CC[C@H](C)[C@H](NC(=O)[C@H](CCCCN)NC(=O)[C@H](CCCCN)NC(=O)[C@H](CO)NC(=O)[C@@H](NC(=O)CNC(=O)[C@H](CCCN=C(N)N)NC(=O)[C@H](CC(C)C)NC(=O)[C@@H](NC(=O)[C@@H](N)CCCCN)[C@@H](C)CC)C(C)C)C(=O)N[C@@H](CCSC)C(=O)N[C@@H](CCCN=C(N)N)C(=O)N[C@H](C(=O)N[C@@H](Cc1ccccc1)C(=O)N[C@@H](CC(C)C)C(=O)N[C@@H](CCCN=C(N)N)C(=O)N[C@@H](CCCN=C(N)N)C(=O)N[C@H](C(=O)N[C@@H](CC(C)C)C(=O)N[C@H](C(=O)NCC(=O)N[C@@H](CCCCN)C(=O)N[C@@H](CCCCN)C(N)=O)[C@@H](C)O)[C@@H](C)CC)[C@@H](C)O [KILRGVSKKIMRTFLRRILTGKK]
MIC [1]: 1.46 µM (≈ 4 µg/mL) | MIC [2]: 0.729 µM (≈ 2 µg/mL) | MIC [3]: 1.46 µM (≈ 4 µg/mL) | MIC [4]: 2.92 µM and 6.93 µM | MIC [5]: 1.46 µM (≈ 4 µg/mL) | MIC [6]: 1.46 µM (≈ 4 µg/mL) | MIC [7]: 23.3 µM (≈ 64 µg/mL) | MIC [8]: 1.46 µM (≈ 4 µg/mL) | MIC [9]: 1.46 µM (≈ 4 µg/mL) | MIC [10]: 5.83 µM (≈ 16 µg/mL) | MIC [11]: 5.83 µM (≈ 16 µg/mL)

SMILES: CC[C@H](C)[C@H](NC(=O)[C@@H]1CCCN1C(=O)[C@H](Cc1ccccc1)NC(=O)[C@@H](N)Cc1ccccc1)C(=O)N[C@H](C(=O)NCC(=O)N[C@@H](CCCCN)C(=O)N[C@@H](CC(C)C)C(=O)N[C@@H](CC(C)C)C(=O)N[C@@H](Cc1ccccc1)C(=O)NCC(=O)N[C@@H](CC(C)C)C(=O)N[C@@H](CC(C)C)C(N)=O)C(C)C [FFPIVGKLLFGLL]
MIC [15]: ≥ 41 µM | MIC [16]: ≥ 51.2 µM | MIC [17]: 10.2 µM (≈ 15 µg/mL) | MIC [18]: 3.42 µM (≈ 5 µg/mL) | MIC [5]: 10.2 µM (≈ 15 µg/mL) | MIC [19]: 5.12 µM (≈ 7.5 µg/mL) | MIC [20]: 20.5 µM (≈ 30 µg/mL) | MIC [14]: 5.12 µM (≈ 7.5 µg/mL)

SMILES: NC(=O)[C@H](Cc1c[nH]c2ccccc12)NC(=O)[C@H](CCCN=C(N)N)NC(=O)[C@H](Cc1c[nH]c2ccccc12)NC(=O)[C@H](CCCN=C(N)N)NC(=O)[C@H](Cc1c[nH]c2ccccc12)NC(=O)[C@H](CCCN=C(N)N)NC(=O)[C@H](Cc1c[nH]c2ccccc12)NC(=O)[C@@H](N)CCCN=C(N)N [RWRWRWRW]
MIC [21]: 23.1 µM (≈ 32 µg/mL) | MIC [22]: 16 µM (≈ 22.2 µg/mL) | MIC [23]: 8 µM (≈ 11.1 µg/mL) | MIC [24]: 50 µM (≈ 69.3 µg/mL) | MIC [25]: 6.25 µM (≈ 8.67 µg/mL) | MIC [26]: 12.5 µM (≈ 17.3 µg/mL)

Continued, values first:

MIC [12]: 15 µM (≈ 49.3 µg/mL) | MIC [13]: 30 µM (≈ 98.7 µg/mL) | MIC [14]: ≥ 60 µM
SMILES: CC[C@H](C)[C@H](NC(=O)[C@H](C)NC(=O)[C@@H](NC(=O)[C@H](CC(=O)O)NC(=O)[C@H](CCCCN)NC(=O)[C@H](Cc1ccccc1)NC(=O)[C@@H](NC(=O)[C@H](CC(=O)O)NC(=O)[C@H](CC(C)C)NC(=O)[C@@H](NC(=O)CN)C(C)C)[C@@H](C)O)C(C)C)C(=O)NCC(=O)N[C@H](C(=O)N[C@@H](C)C(=O)N[C@@H](CCCCN)C(=O)NCC(=O)N[C@@H](C)C(=O)NCC(=O)N[C@H](C(=O)NCC(=O)N[C@H](C(=O)N[C@@H](CC(C)C)C(=O)N[C@@H](CCCCN)C(=O)N[C@@H](C)C(=O)N[C@@H](CC(C)C)C(=O)N[C@@H](CC(C)C)C(=O)N[C@H]1CSSC[C@@H](C(=O)O)NC(=O)[C@H](CO)NC(=O)[C@H](CCCCN)NC(=O)[C@H](CC(=O)O)NC(=O)[C@H](CC(C)C)NC(=O)[C@H](CCCCN)NC1=O)C(C)C)[C@@H](C)O)C(C)C [GVLDTFKDVAIGVAKGAGTGVLKALLCKLDKSC]

MIC [27]: 26.6 µM (≈ 64 µg/mL) | MIC [1]: 26.6 µM (≈ 64 µg/mL) | MIC [28]: ≥ 47 µM | MIC [29]: > 207 µM | MIC [30]: 3.03 µM (≈ 7.3 µg/mL) | MIC [31]: 1.16 µM (≈ 2.8 µg/mL) | MIC [32]: 1.66 µM (≈ 4 µg/mL) | MIC [5]: 104 µM (≈ 250 µg/mL) | MIC [33]: 0.29 µM (≈ 0.7 µg/mL) | MIC [34]: 0.29 µM (≈ 0.7 µg/mL) | MIC [35]: 0.373 µM (≈ 0.9 µg/mL) | MIC [36]: ≥ 104 µM | MIC [37]: 0.747 µM (≈ 1.8 µg/mL) | MIC [38]: 1.91 µM (≈ 4.6 µg/mL) | MIC [39]: ≥ 53.1 µM | MIC [40]: ≥ 498 µM | MIC [41]: ≥ 53.1 µM | MIC [42]: > 207 µM | MIC [43]: 0.166 µM (≈ 0.4 µg/mL) | MIC [44]: 0.207 µM (≈ 0.5 µg/mL) | MIC [45]: 0.166 µM (≈ 0.4 µg/mL) | MIC [46]: 0.249 µM (≈ 0.6 µg/mL) | MIC [47]: 0.498 µM (≈ 1.2 µg/mL) | MIC [48]: ≥ 39.3 µM | MIC [49]: ≥ 83 µM | MIC [50]: 9.13 µM (≈ 22 µg/mL) | MIC [51]: > 207 µM | MIC [52]: > 207 µM | MIC [53]: 31.1 µM (≈ 75 µg/mL)
SMILES: CC[C@H](C)[C@H](NC(=O)CN)C(=O)NCC(=O)N[C@@H](CCCCN)C(=O)N[C@@H](Cc1ccccc1)C(=O)N[C@@H](CC(C)C)C(=O)N[C@@H](Cc1c[nH]cn1)C(=O)N[C@@H](CO)C(=O)N[C@@H](C)C(=O)NCC(=O)N[C@@H](CCCCN)C(=O)N[C@@H](Cc1ccccc1)C(=O)NCC(=O)N[C@@H](CCCCN)C(=O)N[C@@H](C)C(=O)N[C@@H](Cc1ccccc1)C(=O)N[C@H](C(=O)NCC(=O)N[C@@H](CCC(=O)O)C(=O)N[C@H](C(=O)N[C@@H](CCSC)C(=O)N[C@@H](CCCCN)C(=O)N[C@@H](CO)C(=O)O)[C@@H](C)CC)C(C)C [GIGKFLHSAGKFGKAFVGEIMKS]
